Reference: patent US20090163521A1, “Novel Pyrazolopyrimidinone Derivatives” (ORCHID RESEARCH LABORATORIES LIMITED, priority 2005, published 2009)

Tests used:
COX-2 = molecular target: T1, COX-2 (Homo sapiens, UniProt P35354); assay: Human whole blood assay (LPS-induced PGE2, COX-2 inhibition); format: cell-based; conditions: LPS stimulated
T1 construct: Fresh blood was collected in tubes containing sodium heparin by vein puncture from healthy male volunteers; endogenous in cells; host or cells: human whole blood from healthy male volunteers, aspirin-pretreated and LPS-stimulated
T1 sequence (P35354 18-604): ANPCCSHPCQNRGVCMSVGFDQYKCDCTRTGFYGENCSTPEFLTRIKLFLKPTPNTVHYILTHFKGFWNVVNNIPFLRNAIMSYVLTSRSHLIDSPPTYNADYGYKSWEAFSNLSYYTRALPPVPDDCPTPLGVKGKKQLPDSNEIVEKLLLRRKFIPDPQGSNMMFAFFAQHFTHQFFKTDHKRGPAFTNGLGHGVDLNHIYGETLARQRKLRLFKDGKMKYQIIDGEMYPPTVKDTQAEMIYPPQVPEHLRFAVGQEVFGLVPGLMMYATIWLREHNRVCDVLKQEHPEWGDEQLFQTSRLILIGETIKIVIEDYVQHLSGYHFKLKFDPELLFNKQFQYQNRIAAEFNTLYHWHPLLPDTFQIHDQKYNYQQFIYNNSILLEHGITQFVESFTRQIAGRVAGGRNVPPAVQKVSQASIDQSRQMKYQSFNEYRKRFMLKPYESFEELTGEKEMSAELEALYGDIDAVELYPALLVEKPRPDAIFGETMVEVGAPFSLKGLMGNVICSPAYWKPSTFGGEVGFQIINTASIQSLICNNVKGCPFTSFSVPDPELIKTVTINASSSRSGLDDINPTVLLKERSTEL
Method: Human whole blood provides a protein and cell rich milieu appropriate for the study of biochemical efficacy of anti-inflammatory compounds such as selective COX-2 inhibitors. […] This is correlating with the observation that COX-2 inhibitors have no effect on prostaglandin E2 (PGE2) production in normal blood. These inhibitors were active only after incubation of human blood with lipopolysaccharide (LPS), which induces COX-2 production in the blood.
Fresh blood was collected in tubes containing sodium heparin by vein puncture from healthy male volunteers. The subjects should have no apparent inflammatory conditions and not taken NSAIDs for at least 7 days prior to blood collection. Blood was preincubated with aspirin in vitro (12 μg/ml, at time zero) to inactivate COX-1 for 6 hours. Then test compounds (at various concentrations) or vehicle were added to blood. After that blood was stimulated with LPS B:4 (10 μg/ml) and incubated for another 18 h at 37° C. water bath. After which the blood was centrifuged, plasma was separated and stored at −80° C. (J. Pharmacol. Exp. Ther, 271, 1705, 1994; Proc. Natl. Acad. Sci. USA, 96, 7563, 1999). The plasma was assayed for PGE2 using Cayman ELISA kit as per the procedure outlined by the manufacturer (Cayman Chemicals, Ann Arbor, USA).

IL-6 = assay: In vitro measurement of IL-6 in LPS-stimulated human PBMC; format: cell-based; conditions: LPS 1 μg/ml, 18 h
Method: This assay determines the effect of test compounds on the production of IL-6 in human PBMC (Physiol. Res. 52: 593-598, 2003). Compounds were tested for their ability to inhibit the activity of IL-6 in human PBMC. PBMC were isolated from blood using BD Vacutainer CPT™ Cell preparation tube (BD Bio Science) and suspended in RPMI medium. The test compounds were pre-incubated with PBMC (0.5 million/incubation well) for 15 minutes at 37° C. and then stimulated with Lipopolysaccharide (Escherichia coli: B4; 1 μg/ml) for 18 h at 37° C. in 5% CO2. The levels of IL-6 in cell culture medium were estimated using enzyme linked Immunosorbent assay performed in a 96 well format as per the procedure of the manufacturer (Cayman Chemical, Ann Arbor, USA).

TNF-α [1] = assay: In vitro measurement of TNF-α in LPS-stimulated human PBMC; format: cell-based; conditions: LPS 1 μg/ml, 18 h
Method: This assay determines the effect of test compounds on the production of TNF α in human Peripheral Blood Mononuclear Cells (PBMC). Compounds were tested for their ability to inhibit the activity of TNF α in human PBMC. PBMC were isolated from blood (from healthy volunteers) using BD Vacutainer CPT™ (Cell preparation tube, BD Bio Science) and suspended in RPMI medium (Physiol. Res. 52: 593-598, 2003). The test compounds were pre-incubated with PBMC (0.5 million/incubation well) for 15 minutes at 37° C. and then stimulated with Lipopolysaccharide (Escherichia coli: B4; 1 μg/ml) for 18 h at 37° C. in 5% CO2. The levels of TNFα in cell culture medium were estimated using enzyme linked Immunosorbent assay performed in a 96 well format as per the procedure of the manufacturer (Cayman Chemical, Ann Arbor, USA).

[2] = molecular target: T2, purified recombinant COX-2 (Homo sapiens, UniProt P35354); assay: COX-2 enzyme based assay; format: biochemical
T2 sequence (P35354 18-604): T1 sequence (P35354 18-604)
Method: (§1) COX-1 and COX-2 enzyme based assays were carried out to check the inhibitory potential of test compounds on the production of prostaglandin by purified recombinant COX-1/COX-2 enzyme (Proc. Nat. Acad. Sci. USA, 88, 2692-2696, 1991; J. Clin. Immunoassay 15, 116-120, 1992) In this assay, the potential of test compound to inhibit the production of prostaglandin either by COX-1 or COX-2 from arachidonic acid (substrate) was measured. This was an enzyme based in-vitro assay to evaluate selective COX inhibition with good reproducibility.
(§2) Arachidonic acid was converted to PGH2 (Intermediate product) by COX1/COX-2 in presence or absence of the test compound. The reaction was carried out at 37° C. and after 2 minutes it was stopped by adding 1M HCl. Intermediate product PGH2 was converted to a stable prostanoid product PGF2α by SnCl2 reduction. The amount of PGF2α produced in the reaction was inversely proportional to the COX inhibitory potential of the test compound. The prostanoid product was quantified via enzyme immunoassay (EIA) using a broadly specific antibody that binds to all the major forms of prostaglandin, using Cayman ELISA kit as per the procedure outlined by the manufacturer (Cayman Chemicals, Ann Arbor, USA).

TNF-α [3] = assay: LPS induced sepsis for measurement of TNF-α inhibition in mice; format: in vivo; conditions: oral, serum 90 min after LPS
Method: The LPS induced sepsis model in mice was performed as described by Les sekut et al (J Lab Clin Med 1994; 124:813-20). Female Swiss albino mice were selected and the body weights were equivalent within each group. The mice were fasted for 20 hours with free access to water. The mice were dosed orally with the test compound suspended in vehicle containing 0.5% Tween 80 in 0.25% Carboxy-methylcellulose sodium salt. The control mice were administered the vehicle alone. After 30 min of oral dosing, mice were injected with 500 μg of Lipopolysaccharide (Escherichia coli, LPS: B4 from Sigma) in phosphate buffer saline solution into the intraperitoneal cavity of the mice. After 90 min of LPS administration mice were bled via retro-orbital sinus puncture. Blood samples were stored overnight at 4° C. Serum samples were collected by centrifuging the samples at 400 rpm for 15 min at 4° C. Immediately the serum samples were analysed for TNFα levels using commercially available mouse TNF-α ELISA kit (Amersham Biosciences) and assay was performed by the manufacturer instruction.

[4] = molecular target: T3, purified recombinant COX-1 (Ovis aries, UniProt P05979); assay: COX-1 enzyme based assay; format: biochemical
T3 sequence (P05979 25-600): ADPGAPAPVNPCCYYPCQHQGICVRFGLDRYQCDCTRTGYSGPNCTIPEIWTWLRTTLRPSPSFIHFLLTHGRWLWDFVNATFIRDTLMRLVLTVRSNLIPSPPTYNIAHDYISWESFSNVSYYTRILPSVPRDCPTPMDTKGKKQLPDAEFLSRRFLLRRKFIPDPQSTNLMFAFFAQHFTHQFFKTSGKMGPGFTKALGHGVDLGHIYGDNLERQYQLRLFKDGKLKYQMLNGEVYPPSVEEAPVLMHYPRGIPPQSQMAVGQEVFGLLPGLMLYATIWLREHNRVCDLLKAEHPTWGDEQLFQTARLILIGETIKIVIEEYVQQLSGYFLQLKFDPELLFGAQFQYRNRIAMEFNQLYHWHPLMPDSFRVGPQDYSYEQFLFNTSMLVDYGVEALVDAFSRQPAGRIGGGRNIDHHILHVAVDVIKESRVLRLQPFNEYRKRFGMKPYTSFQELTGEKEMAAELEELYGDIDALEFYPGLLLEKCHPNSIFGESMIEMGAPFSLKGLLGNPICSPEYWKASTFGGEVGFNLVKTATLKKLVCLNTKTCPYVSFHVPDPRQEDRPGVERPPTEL
Method: as §1, §2

Structure (SMILES)	inhibition at 1 µM (IL-6) [%]	inhibition at 10 µM (TNF-α [1]) [%]	further results
CSc1ccc(-c2nc3[nH]nc(N)c3c(=O)n2-c2ccc(C)cc2)cc1 [Example 1, 3-amino-5-(4-methylphenyl)-6-[4-(methylthio)phenyl]-1,5-dihydro-4H-pyrazolo[3,4-d]pyrimidin-4-one]	–	–	melting point: > 285 °C; inhibition at 0.25 µM (COX-2; 0.25 μM): 20.3%; inhibition at 10 µM (COX-2; 10 μM): 41.6%
CSc1ccc(-c2nc3[nH]nc(N)c3c(=O)n2-c2ccc(Br)cc2)cc1 [Example 19, 3-Amino-5-(4-bromophenyl)-6-[(4-methylthio)phenyl]-1,5-dihydro-4H-pyrazolo[3,4-d]pyrimidin-4-one]	15.9	64.8	–
CSc1ccc(-c2nc3c(c(N)nn3C)c(=O)n2-c2ccc(C(C)C)cc2)cc1 [Example 22, 3-Amino-5-(4-isopropylphenyl)-1-methyl-6-[4-(methylthio)phenyl]-1,5-dihydro-4H-pyrazolo[3,4-d]pyrimidin-4-one]	12	54	–
CSc1ccc(-c2nc3c(c(N)nn3C)c(=O)n2-c2ccc(C)cc2C)cc1 [Example 23, 3-Amino-5-(2,4-dimethylphenyl)-1-methyl-6-[4-(methylthio)phenyl]-1,5-dihydro-4H-pyrazolo[3,4-d]pyrimidin-4-one]	–	86.3	COX-2 Inhibition (%) ([2]; Conc. 1 μM): Not Active; TNF-α Inhibition (%) (TNF-α [3]; at 5 mg/kg): 92.02 (at 5 mg/kg) %; inhibition at 1 µM ([4]; Conc. 1 μM): 51.6%
CSc1ccc(-c2nc3c(c(N)nn3C)c(=O)n2-c2ccc(Cl)cc2)cc1 [Example 24, 3-Amino-5-(4-chlorophenyl)-1-methyl-6-[4-(methylthio)phenyl]-1,5-dihydro-4H-pyrazolo[3,4-d]pyrimidin-4-one]	–	87.9	TNF-α Inhibition (%) (TNF-α [3]; at 50 mg/kg): 91.99 (at 50 mg/kg) %
CSc1ccc(-c2nc3[nH]nc(NC(C)=O)c3c(=O)n2-c2ccc(C)c(C)c2)cc1 [Example 36, N-[5-(3,4-Dimethylphenyl)-4-oxo-6-[(4-methylthio)phenyl]-4,5-dihydro-1H-pyrazolo[3,4-d]pyrimidin-3-yl]acetamide]	12.7	29.9	–
CSc1ccc(-c2nc3c(c(NC(=O)C(F)(F)F)nn3C)c(=O)n2-c2ccc(C)cc2C)cc1 [Example 40, 2,2,2-trifluoro-N-{5-(2,4-dimethylphenyl)-1-methyl-6-[4-(methylthio)phenyl]-4-oxo-4,5-dihydro-1H-pyrazolo[3,4-d]pyrimidin-3-yl}acetamide]	–	78	inhibition at 10 µM ([2]; Conc. 10 μM): 15.5%; inhibition at 10 µM ([4]; Conc. 10 μM): 3.11%
